In the NIST ThermoML archive (doi:10.1021/je2007549):

Experiments:
[1] = 101 kPa, Liquid; for electrical conductivity: Direct current cell with electrodes; for viscosity: Falling or rolling sphere viscometry; for mass density: Vibrating tube method
[2] = xn = mol fraction of the nth substance listed; settings: 101 kPa, Liquid; for electrical conductivity: Direct current cell with electrodes; for mass density: Vibrating tube method; for viscosity: n

CCCC[P+](CCCC)(CCCC)CCCN.C[C@H](N)C(=O)[O-] [(3-aminopropyl)tributylphosphonium L-alaninate]
[1]
Settings	electrical conductivity [S/m]	mass density [kg/m3]	viscosity [mPa·s]
298.15 K	0.0141	986.75	804.88
303.15 K	0.0209	983.72	561.4
313.15 K	0.032	977.65	291.07
323.15 K	0.0464	971.62	164.61
333.15 K	0.0649	965.71	106.7
343.15 K	0.0884	959.97	65.96

CC(C)C[C@H](N)C(=O)[O-].CCCC[P+](CCCC)(CCCC)CCCN [(3-aminopropyl)tributylphosphonium L-leucinate]
[1]
Settings	electrical conductivity [S/m]	mass density [kg/m3]	viscosity [mPa·s]
298.15 K	0.008	971.86	1227.9
303.15 K	0.0108	968.8	855.26
313.15 K	0.0185	962.68	417.9
323.15 K	0.0291	956.54	224.29
333.15 K	0.0414	950.54	130.46
343.15 K	0.0605	944.58	81.01

CC(C)[C@H](N)C(=O)[O-].CCCC[P+](CCCC)(CCCC)CCCN [(3-aminopropyl)tributylphosphonium L-valinate]
[1]
Settings	electrical conductivity [S/m]	mass density [kg/m3]	viscosity [mPa·s]
298.15 K	0.00815	980.72	1015.5
303.15 K	0.011	977.68	695.04
313.15 K	0.0188	971.57	350.86
323.15 K	0.0294	965.45	192.24
333.15 K	0.0447	959.5	114.05
343.15 K	0.065	953.54	72.45

CC(C)[C@H](N)C(=O)[O-].CCCC[P+](CCCC)(CCCC)CCCN [(3-aminopropyl)tributylphosphonium L-valinate] + O
[2]
Settings	electrical conductivity [S/m]	mass density [kg/m3]	viscosity [mPa·s]
298.15 K, x2 = 0	0.00815	980.72	1015.5
298.15 K, x2 = 0.25	0.0116	982.82	734.22
298.15 K, x2 = 0.5	0.0168	987.18	505.63
298.15 K, x2 = 0.75	0.0414	995.89	237.96
303.15 K, x2 = 0	0.011	977.68	695.04
303.15 K, x2 = 0.25	0.0158	979.76	508.12
303.15 K, x2 = 0.5	0.0237	984.04	335.23
303.15 K, x2 = 0.75	0.0547	992.65	168.93
313.15 K, x2 = 0	0.0188	971.57	350.86
313.15 K, x2 = 0.25	0.0253	973.59	259.52
313.15 K, x2 = 0.5	0.0401	977.71	184.22
313.15 K, x2 = 0.75	0.0853	986.16	92.15
323.15 K, x2 = 0	0.0294	965.45	192.24
323.15 K, x2 = 0.25	0.0392	967.39	145.61
323.15 K, x2 = 0.5	0.0635	971.55	102.76
323.15 K, x2 = 0.75	0.128	979.59	56.03
333.15 K, x2 = 0	0.0447	959.5	114.05
333.15 K, x2 = 0.25	0.0563	961.39	87.86
333.15 K, x2 = 0.5	0.093	965.34	65.77
333.15 K, x2 = 0.75	0.183	972.96	36.96
343.15 K, x2 = 0	0.065	953.54	72.45
343.15 K, x2 = 0.25	0.0858	955.37	56.87
343.15 K, x2 = 0.5	0.132	959.05	43.81
343.15 K, x2 = 0.75	0.258	966.29	24.58
